Reference: US20170202218A1, “Materials for Disinfection Produced by Non-Thermal Plasma” (DREXEL UNIVERSITY, priority 2010, published 2017)

How the values were obtained:
E. coli = conditions: dispersed for 15 sec, no corona discharge applied
Source text: An agar place of bacterial (containing colonies of 10^5 E. coli) was placed on top of a grounded metal plate.

E coli = conditions: in solution, after only 30 seconds; cited from earlier work

| Compound | disinfection of E. coli on agar plate (E. coli) | log reduction in E coli (E coli) [log] |
| --- | --- | --- |
| CCO [alcohol, ethanol] | some spotty effects |  |
| [H]/N=C(\N/C(=N/[H])NCCCCCCNC(=N)NC(=N)Nc1ccc(Cl)cc1)Nc1ccc(Cl)cc1 [chlorhexidine] |  | 3.5 |
